Columns and labels:
[1] = test system: human TLR7 mutant sequence comprising a deletion in the second leucine-rich repeat; test: TLR7 cellular NFκB-luc reporter assay, mutant TLR7 with deletion in the second leucine-rich repeat; format: cell-based; parameters: unit not given here; settings: lowest effective concentration, TLR7 mutant with deletion in second leucine-rich repeat
How it was run: (§1)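 HEK293 cells transiently co-transfected with CMV-driven mutant TLR7 or TLR8 plasmid plus NFκB-luc reporter, cultured 48 h at 37 °C, then exposed to compound for 6 h at 37 °C, 5% CO2. Luciferase luminescence measured; dose-response curves from quadruplicates.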

[2] = target: T1, human TLR8 (wild type sequence) (Homo sapiens, UniProt Q9NR97); test: TLR8 cellular NFκB-luc reporter assay, wild type TLR8; format: cell-based; parameters: unit not given here; settings: lowest effective concentration, wild type TLR8 (compounds 1-73)
T1 construct: expressed in transfected cells; host or cells: HEK293
T1 sequence (Q9NR97 27-1041): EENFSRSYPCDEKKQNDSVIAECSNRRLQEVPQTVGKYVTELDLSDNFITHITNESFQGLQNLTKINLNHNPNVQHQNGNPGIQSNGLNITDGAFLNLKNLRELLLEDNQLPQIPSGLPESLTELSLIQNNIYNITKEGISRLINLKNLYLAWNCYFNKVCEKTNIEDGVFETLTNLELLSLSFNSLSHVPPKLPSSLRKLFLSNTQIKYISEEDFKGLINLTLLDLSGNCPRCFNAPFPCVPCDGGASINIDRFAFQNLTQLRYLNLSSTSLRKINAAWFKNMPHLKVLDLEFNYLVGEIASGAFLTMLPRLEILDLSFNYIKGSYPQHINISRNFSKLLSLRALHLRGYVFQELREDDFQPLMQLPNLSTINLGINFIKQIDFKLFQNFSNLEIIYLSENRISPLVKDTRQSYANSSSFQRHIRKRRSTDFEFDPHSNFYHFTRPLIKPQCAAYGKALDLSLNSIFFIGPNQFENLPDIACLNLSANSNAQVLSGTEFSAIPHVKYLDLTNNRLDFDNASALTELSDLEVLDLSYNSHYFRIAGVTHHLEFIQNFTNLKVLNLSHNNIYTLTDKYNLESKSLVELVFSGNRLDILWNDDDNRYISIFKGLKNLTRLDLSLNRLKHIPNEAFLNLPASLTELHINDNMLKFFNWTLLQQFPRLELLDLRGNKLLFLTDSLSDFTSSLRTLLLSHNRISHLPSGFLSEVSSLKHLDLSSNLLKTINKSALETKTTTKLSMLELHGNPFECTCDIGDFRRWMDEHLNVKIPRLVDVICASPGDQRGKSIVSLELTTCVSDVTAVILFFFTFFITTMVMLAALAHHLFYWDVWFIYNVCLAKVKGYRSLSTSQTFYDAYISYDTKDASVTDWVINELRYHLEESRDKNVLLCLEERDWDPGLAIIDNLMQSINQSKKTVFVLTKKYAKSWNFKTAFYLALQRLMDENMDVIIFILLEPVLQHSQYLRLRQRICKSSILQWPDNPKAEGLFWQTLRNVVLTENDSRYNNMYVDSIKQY
How it was run: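 Luciferase readout followed 6 h of compound exposure at 37 °C, 5% CO2, with quadruplicate dose-response curves. The cells were HEK293 carrying an NFκB-luc reporter and either wild-type TLR7/TLR8 or a mutant with a second leucine-rich repeat deletion, expressed by 48 h transient transfection. LEC is the lowest concentration giving at least twofold over the assay SD.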

[3] = test system: human TLR8 mutant sequence comprising a deletion in the second leucine-rich repeat; test: TLR8 cellular NFκB-luc reporter assay, mutant TLR8 with deletion in the second leucine-rich repeat; format: cell-based; parameters: unit not given here; settings: lowest effective concentration, TLR8 mutant with deletion in second leucine-rich repeat
How it was run: as §1

[4] = test system: HCV replicon in Huh-7 luc/neo cells; test: Suppression of HCV replicon replication by conditioned media from compound-treated PBMC; format: cell-based, HCV type 1 b; settings: Hepatitis C virus, Huh-7; read-out: PBMC-HUH7_EC50
How it was run: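 Readout is firefly luciferase from an HCV genotype 1b NS3-NS5B bicistronic replicon in Huh-7 cells, measured 24 h after adding conditioned medium. That medium came from overnight culture of compound-treated PBMC (2×10^5/well, human AB serum, at least two donors). Interferon α-2a was the reference.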

| Compound | TLR7-dIRR2_LEC [1] | TLR8-wt_LEC [2] | TLR8-dIRR2_LEC [3] | EC50 [4] [nM] |
| --- | --- | --- | --- | --- |
| CCCCNc1nc(N)ncc1OCCCc1ccc(OC)cc1 [Compound 2] | 0.02 | 1.34 | 0.31 | 40 |
| CCCCNc1nc(N)nc(C)c1Oc1ccccc1 [Compound 3] | 21.69 | 4.91 | 1.66 | 10800 |
| CCCCNc1nc(N)ncc1OCc1ncc(C)c(OC)c1C [Compound 6] | 0.01 | 0.16 | 0.10 | 20 |
| CCCCNc1nc(N)nc(C)c1Oc1ccccc1OC [Compound 7] | 1.11 | 5.84 | 3.03 | 3110 |
| CCCCNc1nc(N)ncc1OCc1ccccc1F [Compound 8] | 0.38 | 1.88 | 0.81 | 370 |
| CCCCNc1nc(N)ncc1OCCC(C)C [Compound 9] | 1.55 | 19.00 | 9.70 | 9720 |
| CCCCNc1nc(N)ncc1OCCCC [Compound 10] | 1.28 | 8.14 | 2.82 | 1580 |
| CCCCNc1nc(N)ncc1OCc1ccc(Cl)c(Cl)c1 [Compound 11] | 0.60 | 4.52 | 3.50 | 780 |
| CCCCNc1nc(N)ncc1OCc1ccc(C(=O)OC)cc1 [Compound 12] | 0.26 | 1.49 | 1.12 | 2760 |
| CCCCNc1nc(N)ncc1OCCc1ccccc1 [Compound 13] | 2.26 | 13.18 | 5.23 | 2530 |
| CCCCNc1nc(N)ncc1OCc1ccccc1C [Compound 14] | 0.91 | 4.92 | 0.91 | 1810 |
| CCCCNc1nc(N)ncc1OCc1ccccc1Cl [Compound 15] | 0.17 | 2.31 | 1.06 | 170 |
| C=CCCOc1cnc(N)nc1NCCCC [Compound 16] | 0.49 | 2.68 | 0.59 | 790 |
| CCCCNc1nc(N)ncc1OCCOC [Compound 17] | 0.34 | 2.03 | 0.67 | 710 |
| CCCCNc1nc(N)ncc1OCc1ccncc1 [Compound 18] | 0.83 | 1.87 | 0.85 | 630 |
| C=CCCCCOc1cnc(N)nc1NCCCC [Compound 20] | 0.79 | 10.21 | 2.87 | 1330 |
| CCCCNc1nc(N)ncc1OCCO [Compound 21] | 1.61 | 2.69 | 0.64 | 3080 |
| CCCCNc1nc(N)ncc1OCc1cccnc1 [Compound 22] | 0.31 | 2.35 | 0.94 | 250 |
| CCCCNc1nc(N)ncc1OCc1cccc(C(=O)OC)c1 [Compound 23] | 0.26 | 2.55 | 1.45 | 10800 |
| CCCCNc1nc(N)ncc1OCCCO [Compound 24] | 1.99 | 2.42 | 1.50 | 2750 |

| Compound | TLR7-dIRR2_LEC [1] | TLR8-wt_LEC [2] | TLR8-dIRR2_LEC [3] | EC50 [4] [nM] |
| --- | --- | --- | --- | --- |
| CCCCNc1nc(N)ncc1OCc1ccccc1-c1ccccc1 [Compound 25] | 0.64 | >25 | >25 | 1550 |
| CCCCNc1nc(N)ncc1OCc1cc(C)no1 [Compound 26] | 0.49 | 3.90 | 1.52 | 580 |
| CCCCNc1nc(N)ncc1OCCN1CCOCC1 [Compound 27] | 0.78 | 5.36 | 0.64 | 1030 |
| CCCCNc1nc(N)ncc1OCCCC(N)=O [Compound 28] | 2.47 | 9.18 | 6.99 | 1750 |
| CCCCNc1nc(N)ncc1OCCCC#N [Compound 29] | 1.32 | 2.86 | 1.19 | 2970 |
| CCCCNc1nc(N)ncc1OCCN [Compound 30] | >25 | 6.44 | 1.16 | 9070 |
| CCCCNc1nc(N)ncc1OCc1cc(-c2ccc(F)cc2)on1 [Compound 33] | 0.36 | 1.78 | 1.17 | 1480 |
| CCCCNc1nc(N)ncc1OCc1cn2ccccc2n1 [Compound 34] | 0.06 | 0.83 | 0.61 | 50 |
| CCCCNc1nc(N)ncc1OCc1cc(-c2ccc(OC)cc2)no1 [Compound 35] | 0.39 | 1.67 | 1.66 | 1500 |
| CCCCNc1nc(N)ncc1OCc1cncn1C(C)c1ccccc1 (stereo not shown) [Compound 37] | 0.04 | 9.22 | 5.69 | 120 |
| CCCCNc1nc(N)ncc1OCc1ccccc1OC(F)(F)F [Compound 43] | 0.08 | 8.22 | 1.66 | 790 |
| CCCCNc1nc(N)ncc1OCc1ccc(C(=O)OC)cc1OC [Compound 44] | 0.16 | 3.11 | 1.96 | 590 |
| CCCCNc1nc(N)ncc1OCc1occc1C(=O)OC [Compound 45] | 0.17 | 0.58 | 0.40 | 170 |
| CCCCNc1nc(N)ncc1OCc1ccc(C(=O)OCC)o1 [Compound 46] | 0.19 | 3.85 | 1.96 | 2510 |
| CCCCNc1nc(N)ncc1OCc1occc1C(=O)OCC [Compound 47] | 0.20 | 1.87 | 0.66 | 330 |
| CCCCNc1nc(N)ncc1OCc1occ(C(=O)OC)c1C(=O)OC [Compound 49] | 0.31 | 3.72 | 2.07 | 550 |
| CCCCNc1nc(N)ncc1OCc1cncn1-c1ccccc1C [Compound 50] | 0.51 | >25 | >25 | 780 |
| CCCCNc1nc(N)ncc1OCc1cccc(C(F)(F)F)c1 [Compound 51] | 0.58 | 3.92 | 2.09 | 500 |
| CCCCNc1nc(N)ncc1OCc1cc(C)on1 [Compound 52] | 0.63 | 3.61 | 1.65 | 260 |
| CCCCNc1nc(N)ncc1OCc1cc(F)c(F)cc1OC [Compound 53] | 0.64 | 3.06 | 2.15 | 600 |

Source: patent publication US11541050B2, “Pyrimidine derivatives for the treatment of viral infections” (JANSSEN SCIENCES IRELAND UC, priority 2011, dated 2023)
